# Data reported in patent publication US8716295B2, “Fluoroquinolone derivatives or sulfonamide moiety-containing compounds as inhibitors of tyrosyl-dnaphosphodiesterase (TDP1)” (priority 2010, dated 2014).
# “Also recorded” adds a separate entry of the source. Read-outs that look alike come from different tables or passages of the source.
# How the values were obtained:
# [1] = system: human osteosarcoma U2OS cells; test: Cytotoxicity/proliferation (MTS) assay for synergy with camptothecin; format: cell-based; settings: 72 hours, NF-SDM at 3, 6 and 12 μM
# Protocol: U2OS cells (Developmental Therapeutics Program, NCI) were plated at 3×10^3 cells in a total volume of 100 μl per well in a 96 well plate and incubated at 37° C./5% CO2 for 24 hours prior to drug treatment. CPT and another drug of interest (both in DMSO stock solution) were prepared at double the desired concentration, and serially diluted in cells' media. After medium was aspirated off cells, 50 μl of CPT was plated down each column at four-fold dilutions in subsequent columns and 50 μl of another drug of interest was plated across rows, at two-fold dilutions in subsequent rows. A single drug dose response was also included for each drug tested, to which 50 μl of regular media was added to reconstitute a final volume of 100 μl in each well. Plates were further incubated for 72 hours and proliferation was assayed by adding 20 μl of 3-(4,5-dimethylthiazol-2-yl)-5-(3 carboxymethoxyphenyl)-2-(4-sulfophenyl)-2H-tetrazolium (MTS) Cell Titer Reagent (Promega) to each well. Plates were lightly mixed and placed back into the incubator until the appropriate color change occurred (˜1 hr), at which point plates were read on a Molecular Device Gemini fluorescence plate reader at an absorbance of 490 nm for cell viability. Raw data were plotted using GraphPad Prism and compared to each sample's control (GraphPad Software Inc.).
# recombinant Tdp1 = recombinant Tdp1 (Homo sapiens, UniProt Q9NUW8); test: Gel-based Tdp1 catalytic activity inhibition assay (5'-32P-labeled N14Y DNA substrate, denaturing PAGE); format: biochemical; settings: for IC50: 0.2 nmol/L recombinant Tdp1, 1 nmol/L N14Y substrate, 15 min, room temperature
# Protocol: 5′-^32P-labeled DNA substrate (1 nmol/L; N14Y; 5′-[…]-pY-3′) was incubated with 0.2 nmol/L recombinant Tdp1 in the absence or presence of inhibitor for 15 min at room temperature in an assay buffer containing 1×PBS, pH 7.4, 80 mmol/L KCl and 0.01% Tween-20. Reactions were terminated by the addition of 1 volume of gel loading buffer [99.5% (v/v) formamide, 5 mmol/L EDTA, 0.01% (w/v) xylene cyanol, and 0.01% (w/v) bromophenol blue]. Samples were subjected to a 16% denaturing PAGE and gels were exposed after drying to a PhosphorImager screen (GE Healthcare). Gel images were scanned using a Typhoon 8600 (GE Healthcare) and densitometric analyses were performed using the ImageQuant software package (GE Healthcare).
# [2] = read-out: unable to inhibit Tdp1 / inactive at concentrations up to
# recombinant Tdp1, sequence (Q9NUW8 whole entry): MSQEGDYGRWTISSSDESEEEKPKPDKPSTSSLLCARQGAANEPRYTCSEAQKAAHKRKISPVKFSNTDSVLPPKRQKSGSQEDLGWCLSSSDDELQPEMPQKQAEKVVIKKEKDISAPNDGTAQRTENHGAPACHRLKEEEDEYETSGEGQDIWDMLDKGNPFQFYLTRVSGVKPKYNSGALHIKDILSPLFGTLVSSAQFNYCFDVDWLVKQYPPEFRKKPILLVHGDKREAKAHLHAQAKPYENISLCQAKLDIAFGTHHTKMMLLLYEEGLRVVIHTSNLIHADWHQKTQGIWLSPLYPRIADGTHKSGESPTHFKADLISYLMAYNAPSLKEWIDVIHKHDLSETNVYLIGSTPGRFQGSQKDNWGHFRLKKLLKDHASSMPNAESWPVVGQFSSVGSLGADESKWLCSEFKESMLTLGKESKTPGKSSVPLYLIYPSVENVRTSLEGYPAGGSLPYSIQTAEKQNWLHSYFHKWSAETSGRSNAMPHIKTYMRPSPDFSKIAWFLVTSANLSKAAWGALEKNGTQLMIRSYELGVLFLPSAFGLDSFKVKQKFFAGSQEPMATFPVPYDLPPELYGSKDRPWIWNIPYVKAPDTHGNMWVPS
Structure (SMILES),synergy with the TopI poison camptothecin (CPT) on cell growth/viability [1],Tdp1 inhibitory activity (in words) (recombinant Tdp1),IC50 (recombinant Tdp1; read-out: inhibit Tdp1 catalytic activity (IC50 Tdp1 inhibition)),IC50 (recombinant Tdp1; [2])
CCn1cc(C(=O)O)c(=O)c2cc(F)c(N3CCN(CNc4ccc(S(=O)(=O)Nc5nc(C)cc(C)n5)cc4)CC3)cc21 [NF-SDM],synergize with CPT; also recorded: synergistic effect; also recorded: acts synergistically,nanomolar range,0.005 µM,–
COc1c(N2CCNC(C)C2)c(F)cc2c(=O)c(C(=O)O)cn(C3CC3)c12 (stereo not shown) [gatifloxacin],–,–,–,> 333 µM
CCn1cc(C(=O)O)c(=O)c2cc(F)c(N3CCNCC3)cc21 [norfloxacin],–,–,–,> 333 µM
Cc1cc(C)nc(NS(=O)(=O)c2ccc(N)cc2)n1 [sulfadimidine],–,does not inhibit Tdp1,–,> 333 µM
